One assay addresses T1, hSGLT2 F98A (Homo sapiens, UniProt P31639, F98A).
T1 sequence (P31639 1-672 F98A): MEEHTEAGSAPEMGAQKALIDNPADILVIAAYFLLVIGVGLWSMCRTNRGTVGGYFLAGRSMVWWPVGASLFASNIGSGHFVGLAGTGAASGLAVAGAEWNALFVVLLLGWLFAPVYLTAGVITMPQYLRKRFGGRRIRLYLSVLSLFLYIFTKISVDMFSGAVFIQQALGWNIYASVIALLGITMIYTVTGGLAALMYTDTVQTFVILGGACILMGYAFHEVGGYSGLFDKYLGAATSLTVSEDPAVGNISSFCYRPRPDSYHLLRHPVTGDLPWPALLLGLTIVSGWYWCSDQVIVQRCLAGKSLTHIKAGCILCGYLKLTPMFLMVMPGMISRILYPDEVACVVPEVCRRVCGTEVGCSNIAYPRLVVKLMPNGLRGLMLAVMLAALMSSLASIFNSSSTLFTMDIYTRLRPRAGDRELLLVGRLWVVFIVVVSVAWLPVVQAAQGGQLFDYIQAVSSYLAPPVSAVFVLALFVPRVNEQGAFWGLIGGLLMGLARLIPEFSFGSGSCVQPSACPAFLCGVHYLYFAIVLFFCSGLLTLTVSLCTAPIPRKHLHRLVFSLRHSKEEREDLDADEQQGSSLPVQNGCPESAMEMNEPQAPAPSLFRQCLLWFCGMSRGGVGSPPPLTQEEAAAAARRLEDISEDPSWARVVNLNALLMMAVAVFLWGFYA
T1 sequence (Q13113 1-114 partner): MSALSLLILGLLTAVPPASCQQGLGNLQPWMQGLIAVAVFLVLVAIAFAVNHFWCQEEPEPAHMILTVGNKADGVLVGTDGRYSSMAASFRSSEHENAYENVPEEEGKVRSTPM
Nature of the assay: SGLT2 inhibitor-binding assay (AS-MS), crude membrane, F98A mutant. The conditions noted are these: 30 nM canagliflozin, replicates. Also noted: expressed in transfected cells; host or cells: Expi293 cells, crude membrane fraction. The source says: hSGLT2 complementary DNA and human MAP17 cDNA were synthesized and codon-optimized for expression in human cell lines. Both cDNAs were cloned into the pcDNA3.4 vector. The hSGLT2 sequence was fused with an N-terminal signal sequence from human trypsinogen 1, a His10 tag, and sfGFP, followed by a human rhinovirus 3C protease (HRV3C protease) recognition site. Point mutations were introduced into this construct using site-directed mutagenesis. These plasmids were utilized for all experimental procedures conducted in this study.
To examine the inhibition of binding to the crude membrane, mammalian Expi293 cells were co-transfected with the hMAP17 and hSGLT2 plasmids, as described. […] The extract solution from the filter plate was diluted with water containing candesartan as an internal standard, and the SGLT2 inhibitor concentration was quantified via LC–MS/MS.
Nonspecific binding was measured using the crude membrane of nontransfected Expi293 cells. Specific binding was calculated by subtracting nonspecific binding from the binding of hSGLT2-expressing cells. Specific binding was normalized to hSGLT2 protein expression levels, measured via FSEC. The equilibrium dissociation constant (Kd) and maximum number of binding sites (Bmax) were calculated via nonlinear regression in GraphPad Prism 8.4.3. […]

Assay [1] deals with T2, wild-type hSGLT2 (membrane fraction of hSGLT2 and MAP17 expressing cells) (Homo sapiens, UniProt P31639).
T2 construct: expressed in transfected cells; host or cells: Expi293 cells, crude membrane fraction
T2 sequence (P31639 1-672): T1 sequence (P31639 1-672 F98A) with A98F
T2 sequence (Q13113 1-114 partner): T1 sequence (Q13113 1-114 partner)
Nature of the assay: SGLT2 inhibitor-binding assay via affinity selection–mass spectrometry, crude membrane, WT. Here is the method: To examine the inhibition of binding to the crude membrane, mammalian Expi293 cells were co-transfected with the hMAP17 and hSGLT2 plasmids, as described. The cells were collected and disrupted by sonication in a hypotonic buffer (50 mM HEPES–NaOH (pH 7.5), 10 mM KCl and protease inhibitor cocktail) or Na^+-free hypotonic buffer (50 mM Tris–HCl (pH 7.5), 10 mM KCl and protease inhibitor cocktail). The cell debris were removed by centrifugation (2,000g, 5 min, 4 °C). The membrane fraction was collected by ultracentrifugation (112,000g, 30 min, 4 °C) and stored at −80 °C before use. The crude membrane (250 μg per sample) was incubated with SGLT2 inhibitor in an assay buffer (100 mM NaCl and 10 mM HEPES/Tris, pH 7.4) or Na^+-free assay buffer (100 mM choline chloride and 10 mM HEPES/Tris, pH 7.4) at room temperature for 2 h. Reactions were terminated by filtration through a GF/C filter plate (Corning) presoaked in assay buffer containing 0.1% bovine serum albumin. The sample in the filter plate was washed three times with the assay buffer and eluted with acetonitrile: water (80:20, v/v). The extract solution from the filter plate was diluted with water containing candesartan as an internal standard, and the SGLT2 inhibitor concentration was quantified via LC–MS/MS.
Nonspecific binding was measured using the crude membrane of nontransfected Expi293 cells. Specific binding was calculated by subtracting nonspecific binding from the binding of hSGLT2-expressing cells. Specific binding was normalized to hSGLT2 protein expression levels, measured via FSEC. The equilibrium dissociation constant (Kd) and maximum number of binding sites (Bmax) were calculated via nonlinear regression in GraphPad Prism 8.4.3. The specific binding of the hSGLT2 mutants was normalized to the Bmax of WT hSGLT2.
The concentrations of the extract solution from the filter plate and of the cell lysate were quantified using a tandem mass spectrometry QTRAP6500 System (SCIEX) coupled with an ACQUITY UPLC system (Waters) using the internal standard method. Mobile phases A and B used 10 mM of ammonium bicarbonate and acetonitrile, respectively.

Positions count from the first letter of the chain named. “And” between values parts separate entries of the source, which are not always exact repeats. Equal values may be shown once.

In general, Kd refers to the constant that tells how readily two partners part at equilibrium. As to `Cc1ccc([C@@H]2O[C@H](CO)[C@@H](O)[C@H](O)[C@H]2O)cc1Cc1ccc(-c2ccc(F)cc2)s1` [Canagliflozin], the “Canagliflozin binding (% of WT)” value was -6.142 % of WT and -5.964 % of WT and -3.041 % of WT on hSGLT2 F98A; 95.0024 % of WT and 98.5721 % of WT and 106.426 % of WT in assay [1] (30 nM canagliflozin, WT, replicates). Moreover, the “Canagliflozin binding (% of hSGLT2)” value in assay [1] (30 nM canagliflozin, hSGLT2 membrane) was 85.124 % of hSGLT2 and 96.4187 % of hSGLT2 and 118.457 % of hSGLT2. Also, the Bmax worked out at 1.91 ± 0.16 pmol/mg-protein in assay [1] (Na(+), mean ± SEM n=3) and 1.33 ± 0.12 pmol/mg-protein in assay [1] (Na(-), mean ± SEM n=3). For the same molecule, the Kd in assay [1] (Na(+), mean ± SEM n=3) is 94 ± 21.8 nM; in assay [1] (Na(-), mean ± SEM n=3), 109 ± 25.4 nM; in assay [1] (in the presence of sodium, rounded value quoted by the referee in peer review file), around 100 nM. In addition, the Canagliflozin binding was 0.5239 pmol/mg-protein and 0.5745 pmol/mg-protein and 0.6364 pmol/mg-protein in assay [1] (Sodium 0 mM, replicates); 0.4659 pmol/mg-protein and 0.5424 pmol/mg-protein and 0.6685 pmol/mg-protein in assay [1] (Sodium 1 mM, replicates); 0.8906 pmol/mg-protein and 0.8030 pmol/mg-protein and 0.9338 pmol/mg-protein in assay [1] (Sodium 10 mM, replicates); 0.9992 pmol/mg-protein and 1.5850 pmol/mg-protein and 1.3270 pmol/mg-protein in assay [1] (Sodium 100 mM, replicates). The “Bmax in the absence versus the presence of Na+ (in words)” value in assay [1] (absence vs presence of Na+) was “partially lower”.
